The target in the assay is T1, Type-2 angiotensin II receptor (Homo sapiens, UniProt P50052).
T1 sequence (P50052 whole entry): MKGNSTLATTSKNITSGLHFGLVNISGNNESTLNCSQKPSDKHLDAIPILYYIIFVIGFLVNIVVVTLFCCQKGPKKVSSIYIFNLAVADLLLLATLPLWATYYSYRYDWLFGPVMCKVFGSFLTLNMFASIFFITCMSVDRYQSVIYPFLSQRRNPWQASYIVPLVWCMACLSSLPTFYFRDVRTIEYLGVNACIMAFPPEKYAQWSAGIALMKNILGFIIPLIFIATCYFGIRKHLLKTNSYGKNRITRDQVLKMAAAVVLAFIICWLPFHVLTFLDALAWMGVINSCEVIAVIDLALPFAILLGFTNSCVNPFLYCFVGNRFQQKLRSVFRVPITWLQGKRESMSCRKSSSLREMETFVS
Kind of assay: Displacement of [125-I]-[Sar1, Ile8] from recombinant human AT2R transfected in human HEK293 cells incubated for 2 hrs by liquid scintillation counter analysis.

From BindingDB's records for doi:10.1016/j.bmcl.2021.128086 (Vrije Universiteit Brussel, 2021) come the findings set out here.

The IC50 is the point on the concentration scale where inhibition reaches its midpoint.

With H-DRVYIYPF-OH, the half-maximal inhibitory concentration (IC50) was determined as 4 nM.
